# Source: patent publication US20050228016A1, “TETRAHYDROQUINOLINES FOR MODULATING THE EXPRESSION OF EXOGENOUS GENES VIA AN ECDYSONE RECEPTOR COMPLEX” (priority 2002, published 2005)
# Columns and labels:
# [1] = test system: GAL4 DBD-CfEcR(DEF)/VP16AD-MmRXRE; conditions: CHO 13B3 clone, 48 h, average of two wells
# From the text: GAL4 DBD-CfEcR(DEF)/VP16AD-MmRXRE: The wild-type D, E, and F domains from spruce budworm Choristoneura fumiferana EcR (“CfEcR-DEF”; SEQ ID NO: 1) were fused to a GAL4 DNA binding domain (“Gal4DBD1-147”; nucleotides 31 to 471 of SEQ ID NO: 2) and placed under the control of the SV40e promoter of pM vector (PT3119-5, Clontech, Palo Alto, Calif.). The D and E domains from Mus Musculus RXR (“MmRXR-DE”; SEQ ID NO: 22) were fused to the transactivation domain from VP16 (“VP16AD”; SEQ ID NO: 5) and placed under the control of the SV40e promoter of the pVP16 vector (PT3127-5, Clontech, Palo Alto, Calif.).
# CHO cells were transiently transfected with transcription cassettes for GAL4 DBD-CfEcR(DEF) and for VP16AD-MmRXRE controlled by SV40e promoters. Stably transfected cells were selected using Hygromycin. Individually isolated CHO cell clones were transiently transfected with a GAL4 RE-luciferase reporter (pFR-Luc, Stratagene, La Jolla, Calif.). The 13B3 clone was selected using Zeocin.
# Cells were trypsinized and diluted to a concentration of 2.5×10^4 cells mL. 100 μL of cell suspension was placed in each well of a 96 well plate and incubated at 37° C. under 5% CO2 for 24 h. Ligand stock solutions were prepared in DMSO and diluted 300 fold for all treatments.
# Luciferase reporter gene expression was measured 48 h after cell treatment using Bright-Glo™ Luciferase Assay System from Promega (E2650). Luminescence was detected at room temperature using a Dynex MLX microtiter plate luminometer.
# Each assay was conducted in two separate wells, and the two values were averaged. Fold inductions were calculated by dividing relative light units (“RLU”) in ligand treated cells with RLU in DMSO treated cells.
# [2] = target: T1, Gal4DBD/AaEcR (DEF) (Aedes aegypti, UniProt P49880); assay: cell-based; format: cell-based; conditions: 33 μM; 3T3 cells; 48 h; average of two wells
# T1 construct: The wildtype D, E, and F domains from mosquito Aedes aegypti EcR; expressed in transfected cells; host or cells: 3T3 cells
# Procedure, shortened: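 Single-dose ligand testing at 33 μM, applied in serum medium after 4 h transfection. Host was 3T3 cells carrying Gal4DBD/AaEcR (DEF) plus a 5× GAL4 RE-driven firefly luciferase reporter (pFRLuc).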
# [3] = target: T2, Bombyx mori EcR (VP16-BmEcR, CVBE) (Bombyx mori, UniProt P49881); assay: Z3 assay (HEK-293 clone Z3 with CVBE and 6x EcRE LacZ, β-galactosidase reporter); format: cell-based; conditions: 48 h, average of two wells
# T2 construct: expressed in transfected cells
# T2 sequence (P49881 86-606): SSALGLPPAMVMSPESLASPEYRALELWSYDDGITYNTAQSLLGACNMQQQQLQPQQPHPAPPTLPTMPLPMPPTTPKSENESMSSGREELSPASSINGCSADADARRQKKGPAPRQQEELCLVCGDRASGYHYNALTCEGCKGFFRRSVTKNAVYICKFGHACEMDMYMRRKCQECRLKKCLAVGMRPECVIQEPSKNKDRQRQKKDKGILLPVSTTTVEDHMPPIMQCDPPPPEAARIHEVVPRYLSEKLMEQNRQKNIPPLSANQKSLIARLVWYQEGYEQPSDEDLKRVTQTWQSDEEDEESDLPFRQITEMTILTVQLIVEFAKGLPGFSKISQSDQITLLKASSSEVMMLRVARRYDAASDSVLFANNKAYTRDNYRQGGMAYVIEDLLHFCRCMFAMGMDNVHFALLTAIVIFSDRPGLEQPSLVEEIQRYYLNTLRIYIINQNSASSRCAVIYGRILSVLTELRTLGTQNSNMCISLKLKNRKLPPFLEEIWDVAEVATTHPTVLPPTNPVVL
# T1 sequence (P28704 286-520 A311G/G315S/G445S/I449V): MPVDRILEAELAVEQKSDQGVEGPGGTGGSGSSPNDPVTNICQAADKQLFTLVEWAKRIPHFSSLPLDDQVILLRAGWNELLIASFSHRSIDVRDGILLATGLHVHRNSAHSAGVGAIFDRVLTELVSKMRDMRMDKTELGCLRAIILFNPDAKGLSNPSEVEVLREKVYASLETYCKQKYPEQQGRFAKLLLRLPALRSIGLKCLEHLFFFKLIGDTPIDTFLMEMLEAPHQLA
# T1 sequence (P49880 405-776): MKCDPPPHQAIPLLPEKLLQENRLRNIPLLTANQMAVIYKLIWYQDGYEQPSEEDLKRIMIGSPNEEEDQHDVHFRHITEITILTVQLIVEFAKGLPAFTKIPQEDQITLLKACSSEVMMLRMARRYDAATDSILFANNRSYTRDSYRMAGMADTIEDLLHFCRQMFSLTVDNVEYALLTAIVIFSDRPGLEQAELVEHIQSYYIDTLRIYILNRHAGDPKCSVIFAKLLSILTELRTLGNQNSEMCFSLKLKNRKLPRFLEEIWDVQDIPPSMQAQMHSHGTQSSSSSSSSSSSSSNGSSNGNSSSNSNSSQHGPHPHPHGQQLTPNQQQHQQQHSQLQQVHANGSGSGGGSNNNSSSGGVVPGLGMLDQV
Compound,"Fold Induction Average, 13B3V1 Assay 33 μM [1] [fold]","Fold Induction Average, AA_3T3V1 Assay 33 μM [2] [fold]","Fold Induction Average, Z3V1 Assay 33 μM [3] [fold]"
Cc1ccc(C(=O)N2c3ccccc3C(Nc3ccccc3)CC2C)cc1 (mixture of isomers) [Compound I-39],1,182,4
Cc1ccc(C(=O)N2c3ccccc3C(Nc3ccccc3Cl)CC2C)cc1 (mixture of isomers) [Compound I-41],1,2,1
C[C@H]1C[C@H](Nc2ccccc2)c2ccccc2N1C(=O)c1ccc(F)c(F)c1 (relative stereo) [Compound I-15],1,132,20
Cc1ccc(C(=O)N2c3ccccc3[C@@H](Nc3ccccc3)C[C@@H]2C)cc1F (relative stereo) [Compound I-16],1,376,27
C[C@H]1C[C@H](Nc2ccccc2)c2ccccc2N1C(=O)c1ccc(C(F)(F)F)c(F)c1 (relative stereo) [Compound I-17],1,135,9
Cc1ccc(N[C@H]2C[C@H](C)N(C(=O)c3ccc(C)c(F)c3)c3ccc(C)cc32)cc1 (relative stereo) [Compound I-22],1,132,3
C[C@H]1C[C@H](Nc2ccc(F)cc2)c2cc(F)ccc2N1C(=O)c1ccc(F)c(F)c1 (relative stereo) [Compound I-26],95,124,152
C[C@H]1C[C@H](Nc2ccc(F)cc2)c2cc(F)ccc2N1C(=O)c1ccc(C(F)(F)F)c(F)c1 (relative stereo) [Compound I-27],6,112,119
Cc1ccc(N[C@@H]2C[C@H](C)N(C(=O)c3ccc(C)c(F)c3)c3ccc(C)cc32)cc1 (relative stereo) [Compound I-28],1,1,1
C[C@H]1C[C@@H](Nc2ccccc2)c2ccccc2N1C(=O)c1ccc2c(c1)OCO2 (relative stereo) [Compound I-31],1,48,1
COc1ccc(C=CC(=O)N2c3ccccc3[C@@H](Nc3ccccc3)C[C@@H]2C)cc1OC (relative stereo) [Compound I-146],1,4,1
COc1ccc(C(=O)N2c3ccc(C)cc3[C@H](Nc3ccc(C)cc3)C[C@@H]2C)cc1 (stereo in doubt) [Compound I-152],2,1,1
Cc1ccc(NC2CC(C)N(C(=O)c3ccc4c(c3)OCO4)c3ccc(C)cc32)cc1 (centres unmarked) [Compound I-34],1,1,1
COc1cccc(C(=O)N2c3ccccc3C(Nc3ccccc3)CC2C)c1C (centres unmarked) [Compound I-50],1,21,115
COc1cccc(C(=O)N2c3ccc(F)cc3C(Nc3ccc(F)cc3)CC2C)c1C (centres unmarked) [Compound I-58],30,124,147
CC(=O)N(c1ccccc1)C1CC(C)N(C(=O)C=Cc2ccccc2)c2ccccc21 (centres unmarked) [Compound I-119],3,1,1

Compound,"Fold Induction Average, 13B3V1 Assay 33 μM [1] [fold]","Fold Induction Average, AA_3T3V1 Assay 33 μM [2] [fold]","Fold Induction Average, Z3V1 Assay 33 μM [3] [fold]"
COc1ccc(C(=O)N(c2ccccc2)C2CC(C)N(C(=O)c3ccc(Cl)cc3)c3ccccc32)cc1 (centres unmarked) [Compound I-120],1,249,–
Cc1ccc(NC2CC(C)N(C(=O)c3ccc(F)cc3)c3ccc(C)cc32)cc1 (centres unmarked) [Compound I-124],3,1,–
COc1ccc(C(=O)N2c3ccccc3C(N(C(=O)c3cccs3)c3ccccc3)CC2C)cc1 (centres unmarked) [Compound I-131],1,162,4
CCCCCc1ccc(C(=O)N2c3ccccc3C(Nc3ccccc3)CC2C)cc1 (centres unmarked) [Compound I-138],1,5,1
COc1cccc(N(C(C)=O)C2CC(C)N(C(=O)c3ccccc3)c3ccccc32)c1 (centres unmarked) [Compound I-140],2,1,1
Cc1ccc(NC2CC(C)N(C(=O)c3ccc(Cl)cc3)c3ccc(C)cc32)cc1 (centres unmarked) [Compound I-144],4,73,1
CC1CC(Nc2ccccc2)c2ccccc2N1C(=O)c1cccc(Br)c1 (centres unmarked) [Compound I-148],1,47,19
CC(=O)N(c1ccc(C)cc1)C1CC(C)N(C(=O)c2ccccc2)c2ccccc21 (centres unmarked) [Compound I-149],3,1,–
Cc1ccc(NC2CC(C)N(C(=O)c3cccc([N+](=O)[O-])c3)c3ccc(C)cc32)cc1 (centres unmarked) [Compound I-154],4,1,1
CC1CC(N(C(=O)C2CC2)c2ccccc2)c2ccccc2N1C(=O)C1CC1 (centres unmarked) [Compound I-155],1,1,1
CC1CC(Nc2ccccc2)c2ccccc2N1C(=O)c1cccc([N+](=O)[O-])c1 (centres unmarked) [Compound I-158],118,207,18
Cc1ccc(C(=O)N(c2ccccc2)C2CC(C)N(C(=O)c3ccc(Cl)cc3)c3ccccc32)cc1 (centres unmarked) [Compound I-161],1,28,–
CC1CC(Nc2ccccc2)c2ccccc2N1C(=O)C=Cc1ccccc1 (centres unmarked) [Compound I-163],26,4,27
CC(=O)N1c2ccccc2C(N(C(=O)c2ccccc2F)c2ccccc2)CC1C (centres unmarked) [Compound I-185],1,–,1
Cc1ccc(N(C(=O)c2ccc3c(c2)OCO3)C2CC(C)N(C(=O)c3ccc4c(c3)OCO4)c3ccc(C)cc32)cc1 (centres unmarked) [Compound I-194],1,–,–
